Assay results from patent US20210128457A1 (priority 2019, published 2021).
Like-named read-outs stand apart in the source and are kept apart here.

Key:
[1] = assay type: in vitro ADME
Description: In order to understand the effect of ultrasound transcranial administration (behind the ear) to release the drug through the round window membrane (single-membrane), and the effect of ultrasound transcanal administration to release the drug through the eardrum and the round window membrane (two-membranes), 3D-printed material extrusion was used for designing three drug delivery devices:
M1: single-membrane group (FIGS. 5A to 5C), a dialysis membrane 80 was sandwiched between the donor end 10 (Donor area) and the receiving end 20 (Receptor area) for mimicking the position of the round window membrane.
M1-20°: single-membrane with tilt group, the round window membrane of the guinea pig's ear was not perpendicular to the ear canal, so the ultrasonic probe originally perpendicular to the donor end 10 was tilted at an angle of about 20 degrees (FIG. 5C) to make the experiment more realistic. That is, after the top of the ultrasonic probe was placed at the surface center of saline in the donor end 10, the angle between the long axis direction of the ultrasonic probe and the long axis direction of the device was about 20 degrees.
M1+B: The single-membrane transcranial group (FIG. 5D) differed from the single-membrane group in that the skull 90 was placed on top of the donor end 10; and
M2: two-membranes group (FIGS. 5E to 5F), the dialysis membranes 80 were respectively sandwiched between the donor end 10 and the interval chamber 30 of the device, and between the interval chamber 30 and the receiving end 20, where the donor end 10 simulated the external ear canal, the interval chamber 30 simulated the middle ear cavity, and the receiving end 20 simulated the inner ear.
The above groups simulated the actual guinea pig's ear structure and the volume in each area. The printing material was polyethylene terephthalate (PETG). A suitable molecular weight (Orange scientific, OrDial D-Clean, MW=1000) was chosen for the dialysis membrane 80 to separate the sample from the tested drug. About 400 μL of saline was injected into the receiving end 20 to simulate the actual inner ear lymph fluid volume of the guinea pig. […] The experiment samples were injected to the donor end 10 of the single-membrane group, the single-membrane transcranial group and the single-membrane with tilt group, and were injected to the interval chamber 30 of the two-membranes group, to mimic the volume of the middle ear cavity in the middle ear cavity of the guinea pigs. The single-membrane group and the two-membranes group were subjected to 3 W/cm^2 ultrasonic waves for 3 times (1 minute each time), while the single-membrane transcranial group blocked by the skull 90 was extended to 3 times (3 minutes each time) to ensure inducing the cavitation. […] In each group, saline in the receiving end 20 before the experiment, saline in the donor end 10 or the interval chamber 30 after the experiment, and saline in the receiving end 20 after the experiment were sampled for detecting fluorescence value.

[2] = assay type: in vivo, guinea pigs; conditions: guinea pig
Description: Pigmented guinea pigs with normal sound reflection (Preyer's reflex) were used. The experimental group was divided into the following four groups:
The structure of the ear includes an outer ear 110, a middle ear 120, an inner ear 130, a tympanic membrane 140, and a round window membrane 150. The outer ear 110 includes an external ear canal 111, the middle ear 120 includes auditory ossicles 121 and a middle ear cavity 122, and the inner ear 130 includes a cochlea 131. The ultrasonic device 210 was placed in the external ear canal 111, and the ultrasound waves were generated by an ultrasonic device 210. The ultrasound waves were transmitted to the middle ear cavity 122 and induced the cavitation on the microbubbles 220 located in the middle ear cavity 122.
3 W/cm^2 ultrasound was administered three times (3 minutes each time) at the mark place, and the solution in the middle ear cavity was replaced every time.
After the animal experiment (n=4), the animals were sacrificed and the tympanic bullae were taken out. About 10 μL of perilymph fluid was collected and centrifuged. The supernatant was diluted at a ratio of 1:100 for detecting fluorescence value.
After the animal experiment had finished (n=4), the animals were sacrificed and the tympanic bullae were taken out. About 10 μL of perilymph fluid was collected and centrifuged. The supernatant was diluted at a ratio of 1:100 for detecting fluorescence value.

[3] = tested on: cochlear hair cells; assay: Gentamicin distribution in cochlear hair cells, RWS versus transcanal USM; conditions: stood 3 minutes without ultrasound
Description: Because phalloidin binds to the cytoskeletal actin, it is used to mark the location of hair cells. […] Merge column is the overlay of the left two columns, it is more obvious to see the distribution of gentamicin in the cochlea. […] The green dots indicated the uptake of gentamicin in the hair cells.

Substance	ratio of permeability USM/RWS ([1]; M1+B single-membrane transcranial group)	relative fluorescence units of saline in the receiving end ([1]; M1+B single-membrane transcranial group, RWS) [RFU]	relative fluorescence units of saline in the receiving end ([1]; M1+B single-membrane transcranial group, USM, 3 W/cm^2, 3 times 3 minutes) [RFU]	ratio of permeability USM/RWS ([1]; M1-20° single-membrane with tilt group)	relative fluorescence units of saline in the receiving end ([1]; M1-20° single-membrane with tilt group, RWS) [RFU]	relative fluorescence units of saline in the receiving end ([1]; M1-20° single-membrane with tilt group, USM) [RFU]	ratio of permeability USM/RWS ([1]; M1 single-membrane group)	relative fluorescence units of saline in the receiving end ([1]; M1 single-membrane group, USM, 3 W/cm^2, 3 times 1 minute) [RFU]	relative fluorescence units of saline in the receiving end ([1]; M1 single-membrane group, round window soaking (RWS)) [RFU]	ratio of permeability USM/RWS ([1]; M2 two-membranes group)	relative fluorescence units of saline in the receiving end ([1]; M2 two-membranes group, RWS) [RFU]	relative fluorescence units of saline in the receiving end ([1]; M2 two-membranes group, USM, 3 W/cm^2, 3 times 1 minute) [RFU]	relative fluorescence units of perilymph fluid ([2]; RWS group A, stood 3 minutes without ultrasound) [RFU]	relative fluorescence units of perilymph fluid ([2]; RWS group B, stood 9 minutes without ultrasound) [RFU]	ratio of permeability transcanal USM/RWS group A [2]	ratio of permeability transcranial USM/RWS group B [2]	relative fluorescence units of perilymph fluid ([2]; transcanal group (USM), 3 W/cm^2, 3 times 1 minute) [RFU]	relative fluorescence units of perilymph fluid ([2]; transcranial group (USM), 3 W/cm^2, 3 times 3 minutes) [RFU]	gentamicin uptake in hair cells (green fluorescence), second turn and third turn [3]
biotin-FITC	about 3.74 folds	631.5±21.12	2362±64.91	about 5.67 folds	309.7±20.54	1756.3±76.29	about 6.91 folds	2726.3±79.97	394.5±5.3	about 4.77 folds	285.7±7.45	1363.7±56.66	1633.33±72.63	6700±69.74	about 2.83 folds	about 1.5 folds	4206.83±202.93	10113±338.8	
Gentamicin																			did not found the dot-like fluorescence
